# According to patent US20260256792A1, “TREATMENT OF CHRONIC SPONTANEOUS URTICARIA BY ADMINISTERING (R)-2-[3-[4-AMINO-3-(2-FLUORO-4-PHENOXY-PHENYL)PYRAZOLO[3,4-D]PYRIMIDIN-1-YL]PIPERIDINE-1-CARBONYL]-4-METHYL-4-[4-(OXETAN-3-YL)PIPERAZIN-1-YL]PENT-2-ENENITRILE” (priority 2023, published 2026):
# System: moderate-to-severe chronic spontaneous urticaria (CSU)
# Assay: Phase 2 CSU study: urticaria activity score over 7 days (UAS7)
# Assay type: in vivo, human
# Parameters: key to UAS7 Median / UAS7 Change from baseline Median / UAS7 change from baseline, Q1 / UAS7 change from baseline, Q3 / UAS7 change from baseline, Max / UAS7 Change from baseline LS Mean (SE): UAS7 points; daily UAS score ranges 0–6 points/day, over 7 days
# Description: The study comprises a 12 week, randomized, double-blind, placebo-controlled, multi-center, dose-ranging efficacy and safety phase, followed by a 40 week open label extension (OLE) phase (see FIG. 1). The study consists of three phases and an optional OLE phase. […] Clinically, CSU is characterized by the spontaneous and recurrent appearance of pruritic hives. The proposed primary endpoints were the UAS7 at Week 12 in EU and EU reference countries and the ISS7 in the US. Regardless of where a participant was from, all assessments were the same. The UAS7 score is a composite score containing both the HSS7 and the ISS7. This allowed a global assessment of the two key components of urticaria: hives and itch. […] The UAS is a validated PRO measure. […] The daily UAS scores range from 0 to 6 point/day. […] Patients were to complete the UAS using the e-diary. […] The following secondary endpoints were to be analyzed using the same approach as for the primary endpoint: • Change from baseline in UAS7 at Week 4 • Change from baseline in UAS7 at Week 12 (for US and US reference countries) • Change from baseline in ISS7 at Week 12 (except US and US reference countries) • Change from baseline in HSS7 at Week 12 The following responder secondary endpoints were to be analyzed using the Cochran-Mantel-Haenszel test adjusted by region: • Proportion of participants with UAS7<6 at Week 12 • Proportion of participants with UAS7=0 at Week 12 Participants who received selected prohibited medications and/or rescue medications were to be considered as non-responders for time points after the medication usage. For other participants, all available data including those collected during the off-treatment period were to be used to determine the responder/non-responder status. Missing data were to be considered as non-responders.
# [1] = Week 7, 400 mg BID, Prior Omalizumab Use
# [2] = Week 7, 400 mg BID, omalizumab-naive participants
# [3] = Week 7, 400 mg QPM, ITT population
# [4] = Week 7, 400 mg QPM, Omalizumab-Naïve
# [5] = Week 7, 400 mg QPM, Prior Omalizumab Use
# [6] = Week 7, 400 mg QPM, omalizumab-naive participants
# [7] = Week 7, 400 mg TID, ITT population
# [8] = Week 7, 400 mg TID, Omalizumab-Naïve
# [9] = Week 7, 400 mg TID, Prior Omalizumab Use
# [10] = Week 7, 400 mg TID, omalizumab-naive participants
# [11] = Week 8, 400 mg BID, ITT population
# [12] = Week 8, 400 mg BID, Omalizumab-Naïve
# [13] = Week 8, 400 mg BID, Prior Omalizumab Use
# [14] = Week 8, 400 mg BID, omalizumab-naive participants
smiles,measurement,setting,value
"CC(C)(C=C(C#N)C(=O)N1CCC[C@@H](n2nc(-c3ccc(Oc4ccccc4)cc3F)c3c(N)ncnc32)C1)N1CCN(C2COC2)CC1 [rilzabrutinib, (R)-2-[3-[4-amino-3-(2-fluoro-4-phenoxy-phenyl)pyrazolo[3,4-d]pyrimidin-1-yl]piperidine-1-carbonyl]-4-methyl-4-[4-(oxetan-3-yl)piperazin-1-yl]pent-2-enenitrile]",UAS7 Percent change from baseline Median,"Week 7, 400 mg BID, Omalizumab-Naïve",−48.28%
same,UAS7 Change from baseline Mean (SD),[1],−20.40 (19.58)
same,UAS7 Change from baseline Median,[1],−25.00
same,UAS7 Mean (SD),[1],11.60 (15.79)
same,UAS7 Median,[1],2.00
same,UAS7 Percent change from baseline Mean (SD),[1],−58.52 (53.51) %
same,UAS7 Percent change from baseline Median,[1],−92.59%
same,"Non-responder, UAS7 reduction from baseline of 10 points or more",[2],15 (42.9) n (%)
same,"OR for rilzabrutinib vs. placebo, UAS7 reduction of 10 points or more",[2],2.154
same,"RRD (%) for rilzabrutinib vs. placebo, UAS7 reduction of 10 points or more",[2],18.5 %
same,"Responder, UAS7 reduction from baseline of 10 points or more",[2],20 (57.1) n (%)
same,"Non-responder, UAS7 reduction from baseline of 10 points or more",[3],22 (57.9) n (%)
same,"OR for rilzabrutinib vs. placebo, UAS7 reduction of 10 points or more",[3],1.159
same,"RRD (%) for rilzabrutinib vs. placebo, UAS7 reduction of 10 points or more",[3],3.5 %
same,"Responder, UAS7 reduction from baseline of 10 points or more",[3],16 (42.1) n (%)
same,UAS7 Change from baseline Mean (SD),[4],−10.92 (10.06)
same,UAS7 Change from baseline Median,[4],−9.00
same,UAS7 Mean (SD),[4],21.11 (10.03)
same,UAS7 Median,[4],18.20
same,UAS7 Percent change from baseline Mean (SD),[4],−33.33 (28.49) %
same,UAS7 Percent change from baseline Median,[4],−36.11%
same,UAS7 Change from baseline Mean (SD),[5],−24.00 (NC)
same,UAS7 Change from baseline Median,[5],−24.00
same,UAS7 Mean (SD),[5],17.00 (NC)
same,UAS7 Median,[5],17.00
same,UAS7 Percent change from baseline Mean (SD),[5],−58.54 (NC) %
same,UAS7 Percent change from baseline Median,[5],−58.54%
same,"Non-responder, UAS7 reduction from baseline of 10 points or more",[6],22 (59.5) n (%)
same,"OR for rilzabrutinib vs. placebo, UAS7 reduction of 10 points or more",[6],1.096
same,"RRD (%) for rilzabrutinib vs. placebo, UAS7 reduction of 10 points or more",[6],2.2 %
same,"Responder, UAS7 reduction from baseline of 10 points or more",[6],15 (40.5) n (%)
same,"Non-responder, UAS7 reduction from baseline of 10 points or more",[7],16 (39.0) n (%)
same,"OR for rilzabrutinib vs. placebo, UAS7 reduction of 10 points or more",[7],2.334
same,"RRD (%) for rilzabrutinib vs. placebo, UAS7 reduction of 10 points or more",[7],18.7 %
same,"Responder, UAS7 reduction from baseline of 10 points or more",[7],25 (61.0) n (%)
same,UAS7 Change from baseline Median,[8],−15.00
same,UAS7 Mean (SD),[8],13.54 (9.34)
same,UAS7 Median,[8],14.00
same,UAS7 Percent change from baseline Mean (SD),[8],−54.22 (30.59) %
same,UAS7 Percent change from baseline Median,[8],−52.50%
same,UAS7 Change from baseline Mean (SD),[9],−20.86 (14.89)
same,UAS7 Change from baseline Median,[9],−16.00
same,UAS7 Mean (SD),[9],12.17 (10.21)
same,UAS7 Percent change from baseline Mean (SD),[9],−58.95 (28.44) %
same,UAS7 Percent change from baseline Median,[9],−51.29%
same,"Non-responder, UAS7 reduction from baseline of 10 points or more",[10],13 (37.1) n (%)
same,"OR for rilzabrutinib vs. placebo, UAS7 reduction of 10 points or more",[10],2.765
same,"RRD (%) for rilzabrutinib vs. placebo, UAS7 reduction of 10 points or more",[10],22.3 %
same,"Responder, UAS7 reduction from baseline of 10 points or more",[10],22 (62.9) n (%)
same,"Non-responder, UAS7 reduction from baseline of 10 points or more",[11],17 (41.5) n (%)
same,"OR for rilzabrutinib vs. placebo, UAS7 reduction of 10 points or more",[11],1.985
same,"RRD (%) for rilzabrutinib vs. placebo, UAS7 reduction of 10 points or more",[11],17.5 %
same,"Responder, UAS7 reduction from baseline of 10 points or more",[11],24 (58.5) n (%)
same,UAS7 Change from baseline Mean (SD),[12],−15.64 (11.76)
same,UAS7 Change from baseline Median,[12],−16.00
same,UAS7 Mean (SD),[12],13.98 (13.06)
same,UAS7 Median,[12],10.00
same,UAS7 Percent change from baseline Mean (SD),[12],−54.37 (38.23) %
same,UAS7 Percent change from baseline Median,[12],−64.29%
same,UAS7 Change from baseline Mean (SD),[13],−21.00 (19.13)
same,UAS7 Change from baseline Median,[13],−26.00
same,UAS7 Mean (SD),[13],11.00 (15.67)
same,UAS7 Median,[13],1.00
same,UAS7 Percent change from baseline Mean (SD),[13],−61.16 (51.62) %
same,UAS7 Percent change from baseline Median,[13],−96.30%
same,"Non-responder, UAS7 reduction from baseline of 10 points or more",[14],14 (40.0) n (%)
same,"OR for rilzabrutinib vs. placebo, UAS7 reduction of 10 points or more",[14],2.484
